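Five concentrations, 48 hours, 96-well plates. The concentration for 50% growth inhibition is given as GI50. TGI: total growth inhibition.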
Assays:
Assay in all cases: growth of human tumour cells (NCI), 48 h
786-0 renal = tested on: 786-0 renal
A498 renal = tested on: A498 renal
A549 NSCLC = tested on: A549 NSCLC
ACHN renal = tested on: ACHN renal
BT-549 breast = tested on: BT-549 breast
CAKI-1 renal = tested on: CAKI-1 renal
CCRF-CEM leukemia = tested on: CCRF-CEM leukemia
COLO 205 colon = tested on: COLO 205 colon
DU-145 prostate = tested on: DU-145 prostate
EKVX NSCLC = tested on: EKVX NSCLC
HCC-2998 colon = tested on: HCC-2998 colon
HCT-116 colon = tested on: HCT-116 colon
HCT-15 colon = tested on: HCT-15 colon
HL-60(TB) leukemia = tested on: HL-60(TB) leukemia
HOP-62 NSCLC = tested on: HOP-62 NSCLC
HOP-92 NSCLC = tested on: HOP-92 NSCLC
HS 578T breast = tested on: HS 578T breast
HT29 colon = tested on: HT29 colon
IGROV1 ovarian = tested on: IGROV1 ovarian
K-562 leukemia = tested on: K-562 leukemia
KM12 colon = tested on: KM12 colon
LOX IMVI melanoma = tested on: LOX IMVI melanoma
M14 melanoma = tested on: M14 melanoma
MALME-3M melanoma = tested on: MALME-3M melanoma
MCF7 breast = tested on: MCF7 breast
MDA-MB-231 breast = tested on: MDA-MB-231 breast
MDA-MB-435 = tested on: MDA-MB-435
MDA-MB-468 breast = tested on: MDA-MB-468 breast
MOLT-4 leukemia = tested on: MOLT-4 leukemia
NCI-H226 lung = tested on: NCI-H226 lung
NCI-H23 lung = tested on: NCI-H23 lung
NCI-H460 lung = tested on: NCI-H460 lung
NCI-H522 lung = tested on: NCI-H522 lung
OVCAR-3 ovarian = tested on: OVCAR-3 ovarian
OVCAR-4 ovarian = tested on: OVCAR-4 ovarian
OVCAR-5 ovarian = tested on: OVCAR-5 ovarian
OVCAR-8 ovarian = tested on: OVCAR-8 ovarian
PC-3 prostate = tested on: PC-3 prostate
RPMI-8226 leukemia = tested on: RPMI-8226 leukemia
RXF 393 renal = tested on: RXF 393 renal
SF-268 CNS = tested on: SF-268 CNS
SF-295 CNS = tested on: SF-295 CNS
SF-539 CNS = tested on: SF-539 CNS
SK-MEL-2 melanoma = tested on: SK-MEL-2 melanoma
SK-MEL-28 melanoma = tested on: SK-MEL-28 melanoma
SK-MEL-5 melanoma = tested on: SK-MEL-5 melanoma
SK-OV-3 ovarian = tested on: SK-OV-3 ovarian
SN12C renal = tested on: SN12C renal
SNB-19 CNS = tested on: SNB-19 CNS
SNB-75 CNS = tested on: SNB-75 CNS
SR leukemia = tested on: SR leukemia
SW-620 colon = tested on: SW-620 colon
T-47D breast = tested on: T-47D breast
TK-10 renal = tested on: TK-10 renal
U251 CNS = tested on: U251 CNS
UACC-257 melanoma = tested on: UACC-257 melanoma
UACC-62 melanoma = tested on: UACC-62 melanoma
UO-31 renal = tested on: UO-31 renal

## CC(=O)Nc1ccc(-c2cn(-c3cccc(C(=O)Nc4cc(C(F)(F)F)cc(C(F)(F)F)c4)c3)nn2)cn1
786-0 renal
  GI50: 3.41 µM
  TGI: 12 µM
A498 renal
  GI50: 25.4 µM
  TGI: 42.1 µM
A549 NSCLC
  GI50: 4.54 µM
  TGI: 16.3 µM
ACHN renal
  GI50: 11.1 µM
  TGI: 37.5 µM
BT-549 breast
  GI50: 3.37 µM
  TGI: 8.51 µM
CAKI-1 renal
  GI50: 17.3 µM
  TGI: 45.1 µM
CCRF-CEM leukemia
  GI50: 2.4 µM
  TGI: 6.76 µM
COLO 205 colon
  GI50: 7.14 µM
  TGI: 23.7 µM
DU-145 prostate
  GI50: 10.4 µM
  TGI: 29.5 µM
EKVX NSCLC
  GI50: 11.2 µM
  TGI: 36.1 µM
HCC-2998 colon
  GI50: 14 µM
  TGI: 34.3 µM
HCT-116 colon
  GI50: 5.78 µM
  TGI: 27.7 µM
HCT-15 colon
  GI50: 10.9 µM
  TGI: 33.1 µM
HL-60(TB) leukemia
  GI50: 1.23 µM
  TGI: 10.9 µM
HOP-62 NSCLC
  GI50: 8.56 µM
  TGI: 22.5 µM
HOP-92 NSCLC
  GI50: 2.7 µM
  TGI: 8.6 µM
HS 578T breast
  GI50: 6.17 µM
  TGI: 48.9 µM
HT29 colon
  GI50: 3.24 µM
  TGI: 12.9 µM
IGROV1 ovarian
  GI50: 16.4 µM
  TGI: 35.3 µM
K-562 leukemia
  GI50: 0.154 µM
  TGI: 10.5 µM
KM12 colon
  GI50: 0.417 µM
  TGI: 12.7 µM
LOX IMVI melanoma
  GI50: 4.53 µM
  TGI: 16.3 µM
M14 melanoma
  GI50: 4.39 µM
  TGI: 19.9 µM
MALME-3M melanoma
  GI50: 3.26 µM
  TGI: 12.6 µM
MCF7 breast
  GI50: 4.68 µM
  TGI: 21.8 µM
MDA-MB-231 breast
  GI50: 7.51 µM
  TGI: 25.1 µM
MDA-MB-435
  GI50: 11.7 µM
  TGI: 28.1 µM
MDA-MB-468 breast
  GI50: 3.46 µM
  TGI: 16.2 µM
MOLT-4 leukemia
  GI50: 1.94 µM
  TGI: 6.12 µM
NCI-H226 lung
  GI50: 13.8 µM
  TGI: 30.1 µM
NCI-H23 lung
  GI50: 14.2 µM
  TGI: 33.5 µM
NCI-H460 lung
  GI50: 4.2 µM
  TGI: 15.2 µM
NCI-H522 lung
  GI50: 12.3 µM
  TGI: 30.8 µM
OVCAR-3 ovarian
  GI50: 7.7 µM
  TGI: 21.2 µM
OVCAR-4 ovarian
  GI50: 11.9 µM
  TGI: 31.7 µM
OVCAR-5 ovarian
  GI50: 18.7 µM
  TGI: 38.9 µM
OVCAR-8 ovarian
  GI50: 8.26 µM
  TGI: 24.4 µM
PC-3 prostate
  GI50: 3.4 µM
  TGI: 10.8 µM
RPMI-8226 leukemia
  GI50: 3.46 µM
  TGI: 15 µM
RXF 393 renal
  GI50: 11.2 µM
  TGI: 26.4 µM
SF-268 CNS
  GI50: 21 µM
  TGI: 64.7 µM
SF-295 CNS
  GI50: 14.2 µM
  TGI: 37.3 µM
SF-539 CNS
  GI50: 10 µM
  TGI: 24.8 µM
SK-MEL-2 melanoma
  GI50: 13.4 µM
  TGI: 28.1 µM
SK-MEL-28 melanoma
  GI50: 12.9 µM
  TGI: 29.3 µM
SK-MEL-5 melanoma
  GI50: 16.4 µM
  TGI: 33.2 µM
SK-OV-3 ovarian
  GI50: 13.5 µM
  TGI: 34.1 µM
SN12C renal
  GI50: 11 µM
  TGI: 28.1 µM
SNB-19 CNS
  GI50: 19.9 µM
  TGI: 50.2 µM
SNB-75 CNS
  GI50: 5.84 µM
  TGI: 28.4 µM
SR leukemia
  GI50: 1.89 µM
  TGI: 5.18 µM
SW-620 colon
  GI50: 7.85 µM
  TGI: 24.1 µM
T-47D breast
  GI50: 19.1 µM
  TGI: 91.6 µM
TK-10 renal
  GI50: 26 µM
  TGI: 49.3 µM
U251 CNS
  GI50: 3.85 µM
  TGI: 13.5 µM
UACC-257 melanoma
  GI50: 12.9 µM
  TGI: 36 µM
UACC-62 melanoma
  GI50: 13.5 µM
  TGI: 29.8 µM
UO-31 renal
  GI50: 19.5 µM
  TGI: 37.2 µM

— PubChem BioAssay (NCI)
